Measured values as given in patent publication US20220088016A1, “CANCER TREATMENT USING MULTI-TARGETED KINASE INHIBITOR IN COMBINATION OF PROTEIN KINASE BIOMARKERS” (ZHEJIANG CROWNMAB BIOTECH CO. LTD., priority 2019, published 2022).

Experiments:
PLK1 = PLK1 (Homo sapiens, UniProt P53350); experiment: Kinase profiling; format: binding; conditions: read-out: % Ctrl @ 1000 nM
DMPK = DMPK (Homo sapiens, UniProt Q09013); experiment: Kinase profiling; format: binding; conditions: read-out: % Ctrl @ 1000 nM
YES = YES (Homo sapiens, UniProt P07947); experiment: Kinase profiling; format: binding; conditions: read-out: % Ctrl @ 1000 nM
FGFR2 = FGFR2 (Homo sapiens, UniProt P21802); experiment: Kinase profiling; format: binding; conditions: read-out: % Ctrl @ 1000 nM
[1] = target: RSK2 (Kin.Dom.1-N-terminal) (Homo sapiens, UniProt P51812); experiment: Kinase profiling; format: binding; conditions: read-out: % Ctrl @ 1000 nM
[2] = target: RPS6KA5 (Kin.Dom.1-N-terminal) (Homo sapiens, UniProt O75582); experiment: Kinase profiling; format: binding; conditions: read-out: % Ctrl @ 1000 nM
TTK = TTK (Homo sapiens, UniProt P33981); experiment: Kinase profiling; format: binding; conditions: read-out: % Ctrl @ 1000 nM
TAOK1 = TAOK1 (Homo sapiens, UniProt Q7L7X3); experiment: Kinase profiling; format: binding; conditions: read-out: % Ctrl @ 1000 nM
PDGFRβ (h) = target: T1, PDGFRβ (h) (Homo sapiens, UniProt P09619); experiment: Kinase IC50 (Eurofins KinaseProfiler); format: biochemical
T1 construct: purchased Eurofins (KinaseProfiler service)
Method: (§1) CBT-102 were tested against each of the selected kinases using the Eurofins standard KinaseProfder assays and following the relevant standard operating procedures. The required volume of the 50× stock of test compound (CBT-102) was added to the assay well, before a reaction mix containing the enzyme and substrate was added. The reaction was initiated by the addition of ATP at the selected concentration. There was no pre-incubation of the compound with the enzyme/substrate mix prior to ATP addition.
(§2) Data are handled using a custom-built in-house analysis software. Results are expressed as kinase activity remaining, as a percentage of the DMSO control. This is calculated using the following formula: […]
(§3) For IC50 determinations, data are analyzed using XLFit version 5.3 (ID Business Solutions).

FGFR1 (h) = target: T2, FGFR1 (h) (Homo sapiens, UniProt P11362); experiment: Kinase IC50 (Eurofins KinaseProfiler); format: biochemical
T2 construct: purchased Eurofins (KinaseProfiler service)
Method: as §1, §2, §3

p70S6K (h) = target: T3, p70S6K (h) (Homo sapiens, UniProt P23443); experiment: Kinase IC50 (Eurofins KinaseProfiler); format: biochemical
T3 construct: purchased Eurofins (KinaseProfiler service)
Method: as §1, §2, §3

DDR2 (h) = target: T4, DDR2 (h) (Homo sapiens, UniProt Q16832); experiment: Kinase IC50 (Eurofins KinaseProfiler); format: biochemical
T4 construct: purchased Eurofins (KinaseProfiler service)
Method: as §1, §2, §3

BRK (h) = target: T5, BRK (h) (Homo sapiens, UniProt Q13882); experiment: Kinase IC50 (Eurofins KinaseProfiler); format: biochemical
T5 construct: purchased Eurofins
Method: as §1, §2, §3

FGFR2 (h) = target: T6, FGFR2 (h) (Homo sapiens, UniProt P21802); experiment: Kinase IC50 (Eurofins KinaseProfiler); format: biochemical
T6 construct: purchased Eurofins (KinaseProfiler service)
Method: as §1, §2, §3

Syk (h) = target: T7, Syk (h) (Homo sapiens, UniProt P43405); experiment: Kinase IC50 (Eurofins KinaseProfiler); format: biochemical
T7 construct: purchased Eurofins
Method: as §1, §2, §3

PDGFRα (V561D) (h) = target: T8, PDGFRα (V561D) (h) (Homo sapiens, UniProt P16234, V561D); experiment: Kinase IC50 (Eurofins KinaseProfiler); format: biochemical
T8 construct: purchased Eurofins (KinaseProfiler service)
Method: as §1, §2, §3

Ret (V804M) (h) = target: T9, Ret (V804M) (h) (Homo sapiens, UniProt P07949, V804M); experiment: Kinase IC50 (Eurofins KinaseProfiler); format: biochemical
T9 construct: purchased Eurofins
Method: as §1, §2, §3

B-Raf (h) = target: T10, B-Raf (h) (Homo sapiens, UniProt P15056); experiment: Kinase IC50 (Eurofins KinaseProfiler); format: biochemical
T10 construct: purchased Eurofins
Method: as §1, §2, §3

RIPK2 (h) = target: T11, RIPK2 (h) (Homo sapiens, UniProt O43353); experiment: Kinase IC50 (Eurofins KinaseProfiler); format: biochemical
T11 construct: purchased Eurofins
Method: as §1, §2, §3

SLK (h) = target: T12, SLK (h) (Homo sapiens, UniProt Q9H2G2); experiment: Kinase IC50 (Eurofins KinaseProfiler); format: biochemical
T12 construct: purchased Eurofins
Method: as §1, §2, §3

IR (h) = target: T13, IR (h) (Homo sapiens, UniProt P06213); experiment: Kinase IC50 (Eurofins KinaseProfiler); format: biochemical
T13 construct: purchased Eurofins (KinaseProfiler service)
Method: as §1, §2, §3

Aurora-B (h) = target: T14, Aurora-B (h) (Homo sapiens, UniProt Q96GD4); experiment: Kinase IC50 (Eurofins KinaseProfiler); format: biochemical
T14 construct: purchased Eurofins
Method: as §1, §2, §3

MuSK (h) = target: T15, MuSK (h) (Homo sapiens, UniProt O15146); experiment: Kinase IC50 (Eurofins KinaseProfiler); format: biochemical
T15 construct: purchased Eurofins (KinaseProfiler service)
Method: as §1, §2, §3

Pim-1 (h) = target: T16, Pim-1 (h) (Homo sapiens, UniProt P11309); experiment: Kinase IC50 (Eurofins KinaseProfiler); format: biochemical
T16 construct: purchased Eurofins
Method: as §1, §2, §3

Plk1 (h) = target: T17, Plk1 (h) (Homo sapiens, UniProt P53350); experiment: Kinase IC50 (Eurofins KinaseProfiler); format: biochemical
T17 construct: purchased Eurofins
Method: as §1, §2, §3

SAPK2a (h) = target: T18, SAPK2a (h) (Homo sapiens, UniProt Q16539); experiment: Kinase IC50 (Eurofins KinaseProfiler); format: biochemical
T18 construct: purchased Eurofins
Method: as §1, §2, §3

FAK (h) = target: T19, FAK (h) (Homo sapiens, UniProt Q05397); experiment: Kinase IC50 (Eurofins KinaseProfiler); format: biochemical
T19 construct: purchased Eurofins (KinaseProfiler service)
Method: as §1, §2, §3

CDKL3 (h) = target: T20, CDKL3 (h) (Homo sapiens, UniProt Q8IVW4); experiment: Kinase IC50 (Eurofins KinaseProfiler); format: biochemical
T20 construct: purchased Eurofins (KinaseProfiler service)
Method: as §1, §2, §3

TAK1 (h) = target: T21, TAK1 (h) (Homo sapiens, UniProt O43318); experiment: Kinase IC50 (Eurofins KinaseProfiler); format: biochemical
T21 construct: purchased Eurofins
Method: as §1, §2, §3

CSK (h) = target: T22, CSK (h) (Homo sapiens, UniProt P41240); experiment: Kinase IC50 (Eurofins KinaseProfiler); format: biochemical
T22 construct: purchased Eurofins (KinaseProfiler service)
Method: as §1, §2, §3

B-Raf (V599E) (h) = target: T23, B-Raf (V599E) (h) (Homo sapiens, UniProt P15056, V600E); experiment: Kinase IC50 (Eurofins KinaseProfiler); format: biochemical
T23 construct: purchased Eurofins
Method: as §1, §2, §3

Aurora-C (h) = target: T24, Aurora-C (h) (Homo sapiens, UniProt Q9UQB9); experiment: Kinase IC50 (Eurofins KinaseProfiler); format: biochemical
T24 construct: purchased Eurofins
Method: as §1, §2, §3

Fms (h) (CSF1R) = target: T25, Fms (h) (CSF1R) (Homo sapiens, UniProt P07333); experiment: Kinase IC50 (Eurofins KinaseProfiler); format: biochemical
T25 construct: purchased Eurofins (KinaseProfiler service)
Method: as §1, §2, §3

PrKX (h) = target: T26, PrKX (h) (Homo sapiens, UniProt P51817); experiment: Kinase IC50 (Eurofins KinaseProfiler); format: biochemical
T26 construct: purchased Eurofins
Method: as §1, §2, §3

PYK2 = PYK2 (Homo sapiens, UniProt Q14289); experiment: Kinase profiling; format: binding; conditions: read-out: % Ctrl @ 1000 nM

Sequence of PLK1 (P53350 whole entry): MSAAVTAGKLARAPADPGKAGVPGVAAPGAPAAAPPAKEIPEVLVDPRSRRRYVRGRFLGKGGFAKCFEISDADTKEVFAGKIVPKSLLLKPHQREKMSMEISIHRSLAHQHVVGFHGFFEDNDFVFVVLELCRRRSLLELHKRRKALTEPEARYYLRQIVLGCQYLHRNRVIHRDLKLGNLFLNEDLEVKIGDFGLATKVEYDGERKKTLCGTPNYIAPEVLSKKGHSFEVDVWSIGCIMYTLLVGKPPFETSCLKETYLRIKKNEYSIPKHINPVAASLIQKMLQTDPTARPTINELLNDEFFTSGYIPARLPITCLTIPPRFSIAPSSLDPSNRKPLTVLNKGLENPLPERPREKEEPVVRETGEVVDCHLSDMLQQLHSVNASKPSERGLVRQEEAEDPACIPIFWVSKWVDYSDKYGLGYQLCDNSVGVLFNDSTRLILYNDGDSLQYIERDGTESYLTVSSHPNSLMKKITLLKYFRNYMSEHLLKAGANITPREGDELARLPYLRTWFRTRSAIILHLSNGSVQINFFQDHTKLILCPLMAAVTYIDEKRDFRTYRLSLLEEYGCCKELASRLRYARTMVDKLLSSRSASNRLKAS
T17 sequence (P53350 whole entry): as above
T13 sequence (P06213 28-1382): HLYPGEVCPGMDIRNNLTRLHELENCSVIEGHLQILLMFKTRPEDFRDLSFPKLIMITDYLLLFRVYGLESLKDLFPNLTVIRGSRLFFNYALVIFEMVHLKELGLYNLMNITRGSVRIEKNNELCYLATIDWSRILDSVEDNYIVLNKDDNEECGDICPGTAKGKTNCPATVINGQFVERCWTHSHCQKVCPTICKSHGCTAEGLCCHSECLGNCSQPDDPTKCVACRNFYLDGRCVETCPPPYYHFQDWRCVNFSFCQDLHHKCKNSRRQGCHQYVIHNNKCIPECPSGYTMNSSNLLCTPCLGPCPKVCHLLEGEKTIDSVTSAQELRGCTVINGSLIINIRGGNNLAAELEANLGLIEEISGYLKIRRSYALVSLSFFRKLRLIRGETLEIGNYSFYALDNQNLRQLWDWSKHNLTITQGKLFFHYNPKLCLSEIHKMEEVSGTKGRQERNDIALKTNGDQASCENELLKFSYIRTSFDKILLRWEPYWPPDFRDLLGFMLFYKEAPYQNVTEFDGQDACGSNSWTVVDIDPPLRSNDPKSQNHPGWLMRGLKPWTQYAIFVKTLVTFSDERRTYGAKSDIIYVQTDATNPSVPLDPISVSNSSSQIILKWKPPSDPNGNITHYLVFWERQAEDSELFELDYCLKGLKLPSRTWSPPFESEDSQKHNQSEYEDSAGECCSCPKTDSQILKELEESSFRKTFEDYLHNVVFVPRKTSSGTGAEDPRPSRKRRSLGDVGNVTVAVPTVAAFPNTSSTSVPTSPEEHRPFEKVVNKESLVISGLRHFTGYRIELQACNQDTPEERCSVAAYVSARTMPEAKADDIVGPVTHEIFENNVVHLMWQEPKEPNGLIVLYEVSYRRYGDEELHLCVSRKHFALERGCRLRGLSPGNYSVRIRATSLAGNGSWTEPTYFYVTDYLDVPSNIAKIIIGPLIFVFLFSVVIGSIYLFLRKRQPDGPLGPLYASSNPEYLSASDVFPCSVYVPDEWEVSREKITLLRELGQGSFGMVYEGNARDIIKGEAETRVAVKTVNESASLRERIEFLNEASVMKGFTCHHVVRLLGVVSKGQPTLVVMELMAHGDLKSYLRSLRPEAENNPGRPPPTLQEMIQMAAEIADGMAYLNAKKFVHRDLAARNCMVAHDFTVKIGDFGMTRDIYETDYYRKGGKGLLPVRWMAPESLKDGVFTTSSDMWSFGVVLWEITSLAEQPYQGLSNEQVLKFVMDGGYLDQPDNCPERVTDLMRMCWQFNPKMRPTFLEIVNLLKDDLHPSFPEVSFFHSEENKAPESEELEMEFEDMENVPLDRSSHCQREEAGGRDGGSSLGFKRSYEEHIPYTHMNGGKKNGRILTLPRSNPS
T21 sequence (O43318 1-303 limits assumed): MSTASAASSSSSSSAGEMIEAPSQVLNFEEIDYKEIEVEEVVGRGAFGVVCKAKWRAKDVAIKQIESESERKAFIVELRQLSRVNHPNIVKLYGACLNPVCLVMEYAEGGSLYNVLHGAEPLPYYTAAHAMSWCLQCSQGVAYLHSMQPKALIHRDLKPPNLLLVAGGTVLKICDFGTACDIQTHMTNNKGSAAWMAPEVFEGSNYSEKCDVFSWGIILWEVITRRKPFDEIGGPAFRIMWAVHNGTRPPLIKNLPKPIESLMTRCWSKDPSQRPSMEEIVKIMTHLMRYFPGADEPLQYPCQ
T8 sequence (P16234 24-1089 V561D): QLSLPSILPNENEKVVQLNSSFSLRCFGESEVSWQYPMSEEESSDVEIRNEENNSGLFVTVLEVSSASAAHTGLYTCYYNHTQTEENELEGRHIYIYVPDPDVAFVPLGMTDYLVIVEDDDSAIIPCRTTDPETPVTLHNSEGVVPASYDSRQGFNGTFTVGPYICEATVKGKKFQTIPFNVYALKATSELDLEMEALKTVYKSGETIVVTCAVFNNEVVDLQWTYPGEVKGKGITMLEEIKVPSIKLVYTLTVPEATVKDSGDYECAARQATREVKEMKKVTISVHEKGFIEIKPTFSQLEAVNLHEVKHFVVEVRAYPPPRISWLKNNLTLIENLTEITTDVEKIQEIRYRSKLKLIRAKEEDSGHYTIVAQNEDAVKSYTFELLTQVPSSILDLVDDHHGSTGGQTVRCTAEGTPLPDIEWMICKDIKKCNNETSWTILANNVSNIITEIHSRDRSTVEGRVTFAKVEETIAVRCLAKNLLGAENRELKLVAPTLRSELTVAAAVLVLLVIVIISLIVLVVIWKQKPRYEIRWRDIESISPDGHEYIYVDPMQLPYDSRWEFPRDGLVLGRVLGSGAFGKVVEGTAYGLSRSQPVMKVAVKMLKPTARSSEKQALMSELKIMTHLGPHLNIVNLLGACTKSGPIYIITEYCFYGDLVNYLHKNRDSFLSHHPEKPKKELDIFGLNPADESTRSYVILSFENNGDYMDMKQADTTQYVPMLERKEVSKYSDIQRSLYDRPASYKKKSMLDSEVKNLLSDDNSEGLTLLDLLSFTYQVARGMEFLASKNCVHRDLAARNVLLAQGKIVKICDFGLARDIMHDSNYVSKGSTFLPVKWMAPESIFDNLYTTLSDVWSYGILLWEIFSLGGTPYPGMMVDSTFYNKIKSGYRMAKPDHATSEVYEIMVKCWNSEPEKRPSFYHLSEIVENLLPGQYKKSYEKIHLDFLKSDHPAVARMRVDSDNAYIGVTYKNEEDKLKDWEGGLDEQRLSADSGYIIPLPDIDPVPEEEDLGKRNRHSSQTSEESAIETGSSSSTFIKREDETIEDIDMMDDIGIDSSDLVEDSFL
Sequence of TAOK1 (Q7L7X3 whole entry): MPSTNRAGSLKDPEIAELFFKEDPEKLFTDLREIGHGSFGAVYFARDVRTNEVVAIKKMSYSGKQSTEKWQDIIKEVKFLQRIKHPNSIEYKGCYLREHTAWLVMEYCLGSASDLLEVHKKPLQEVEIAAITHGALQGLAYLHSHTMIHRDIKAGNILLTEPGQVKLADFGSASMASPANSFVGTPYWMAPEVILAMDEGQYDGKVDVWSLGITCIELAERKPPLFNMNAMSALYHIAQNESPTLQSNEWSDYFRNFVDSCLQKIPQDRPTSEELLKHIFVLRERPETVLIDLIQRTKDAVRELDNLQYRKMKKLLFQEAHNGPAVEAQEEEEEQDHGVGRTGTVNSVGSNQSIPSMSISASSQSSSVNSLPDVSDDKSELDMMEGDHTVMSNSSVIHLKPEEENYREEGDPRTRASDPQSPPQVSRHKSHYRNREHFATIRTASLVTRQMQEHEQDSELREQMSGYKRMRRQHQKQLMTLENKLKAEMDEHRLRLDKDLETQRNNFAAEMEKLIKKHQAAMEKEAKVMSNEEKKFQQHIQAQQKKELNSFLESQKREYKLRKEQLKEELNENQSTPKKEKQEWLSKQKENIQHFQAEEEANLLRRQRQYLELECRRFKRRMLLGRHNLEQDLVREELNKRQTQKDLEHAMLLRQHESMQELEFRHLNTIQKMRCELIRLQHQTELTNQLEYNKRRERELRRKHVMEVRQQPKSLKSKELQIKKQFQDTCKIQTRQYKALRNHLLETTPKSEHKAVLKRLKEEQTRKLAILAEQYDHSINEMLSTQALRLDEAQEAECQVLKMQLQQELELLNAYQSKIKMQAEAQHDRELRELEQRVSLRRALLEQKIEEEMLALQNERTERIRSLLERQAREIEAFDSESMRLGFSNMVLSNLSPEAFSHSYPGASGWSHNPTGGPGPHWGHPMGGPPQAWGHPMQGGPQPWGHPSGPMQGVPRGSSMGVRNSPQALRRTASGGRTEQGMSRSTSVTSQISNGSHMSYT
T24 sequence (Q9UQB9 whole entry): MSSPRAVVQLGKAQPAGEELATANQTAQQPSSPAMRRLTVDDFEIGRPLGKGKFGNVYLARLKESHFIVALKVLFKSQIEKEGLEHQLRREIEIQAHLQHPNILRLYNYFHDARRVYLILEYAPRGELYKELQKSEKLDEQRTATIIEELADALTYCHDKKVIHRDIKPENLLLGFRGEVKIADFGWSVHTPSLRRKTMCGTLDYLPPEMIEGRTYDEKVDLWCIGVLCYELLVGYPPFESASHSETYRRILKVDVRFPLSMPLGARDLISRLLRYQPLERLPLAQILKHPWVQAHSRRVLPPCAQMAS
T14 sequence (Q96GD4 whole entry): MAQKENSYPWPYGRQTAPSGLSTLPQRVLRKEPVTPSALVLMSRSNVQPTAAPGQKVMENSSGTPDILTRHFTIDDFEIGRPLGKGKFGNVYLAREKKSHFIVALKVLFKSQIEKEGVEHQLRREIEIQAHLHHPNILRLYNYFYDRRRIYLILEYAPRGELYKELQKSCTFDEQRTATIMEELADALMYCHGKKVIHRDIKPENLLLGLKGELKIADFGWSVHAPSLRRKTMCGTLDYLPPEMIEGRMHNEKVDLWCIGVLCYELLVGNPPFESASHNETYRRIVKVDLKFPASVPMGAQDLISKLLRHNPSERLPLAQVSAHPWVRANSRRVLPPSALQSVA

Q: With `Cc1cc(Oc2cc(NC(=O)C3CC3)ncn2)ccc1NC(=O)Nc1ccc(Cl)c(C(F)(F)F)c1` [CBT-102] as the compound, how does the remaining activity at 1 µM (PLK1) read?
A: 95%

Q: And the remaining activity at 1 µM (DMPK)?
A: 93%

Q: What about the remaining activity at 1 µM (YES) of the same compound?
A: 55%

Q: And the remaining activity at 1 µM (FGFR2)?
A: 62%

Q: And the remaining activity at 1 µM [1]?
A: 97%

Q: And the remaining activity at 1 µM [2]?
A: 100%

Q: What about the remaining activity at 1 µM (TTK) of the same compound?
A: 61%

Q: And the remaining activity at 1 µM (TAOK1)?
A: 49%

Q: And the IC50 (PDGFRβ (h))?
A: 1320 nM

Q: What about the IC50 (FGFR1 (h)) of the same compound?
A: 410 nM

Q: What about the IC50 (p70S6K (h)) of the same compound?
A: > 10000 nM

Q: And the IC50 (DDR2 (h))?
A: 263 nM

Q: What about the IC50 (BRK (h)) of the same compound?
A: > 10000 nM

Q: What about the IC50 (FGFR2 (h)) of the same compound?
A: 596 nM

Q: And the IC50 (Syk (h))?
A: > 10000 nM

Q: And the IC50 (PDGFRα (V561D) (h))?
A: 28 nM

Q: What about the IC50 (Ret (V804M) (h)) of the same compound?
A: 693 nM

Q: What about the IC50 (B-Raf (h)) of the same compound?
A: 348 nM

Q: What about the IC50 (RIPK2 (h)) of the same compound?
A: 107 nM

Q: What about the IC50 (SLK (h)) of the same compound?
A: 879 nM

Q: What about the IC50 (IR (h)) of the same compound?
A: > 10000 nM

Q: And the IC50 (Aurora-B (h))?
A: 525 nM

Q: What about the IC50 (MuSK (h)) of the same compound?
A: 278 nM

Q: And the IC50 (Pim-1 (h))?
A: > 10000 nM

Q: And the IC50 (Plk1 (h))?
A: > 10000 nM

Q: What about the IC50 (SAPK2a (h)) of the same compound?
A: 180 nM

Q: What about the IC50 (FAK (h)) of the same compound?
A: > 10000 nM

Q: What about the IC50 (CDKL3 (h)) of the same compound?
A: > 10000 nM

Q: What about the IC50 (TAK1 (h)) of the same compound?
A: 481 nM

Q: And the IC50 (CSK (h))?
A: > 10000 nM

Q: What about the IC50 (B-Raf (V599E) (h)) of the same compound?
A: 115 nM

Q: And the IC50 (Aurora-C (h))?
A: > 10000 nM

Q: What about the IC50 (Fms (h) (CSF1R)) of the same compound?
A: 43 nM

Q: What about the IC50 (PrKX (h)) of the same compound?
A: > 10000 nM

Q: And the remaining activity at 1 µM (PYK2)?
A: 93%
